Drawing on US20210163412A1, “NOVEL SULFONEUREA COMPOUNDS” (Inflazome Limited, priority 2018, published 2021), this text covers IC50 for 37 molecules.

Where only a bound is given, the exact number is not on record here.

Test [1] concerns the target T1, NLRP3 (Homo sapiens, UniProt Q96P20). Description: Human whole blood IL-1β release assay. The settings on record: LPS 1 μg/ml, nigericin, IL-1β in supernatant (AlphaLisa), read-out: HWB IC50. More on the design: Human whole blood in Li-heparin tubes was obtained from healthy donors; from tissue; host or cells: human whole blood from healthy donors. In kind it is cell-based. Here is the method:
For systemic delivery, the ability to inhibit NLRP3 when the compounds are present within the bloodstream is of great importance. For this reason, the NLRP3 inhibitory activity of a number of compounds in human whole blood was investigated in accordance with the following protocol.
Human whole blood in Li-heparin tubes was obtained from healthy donors from a volunteer donor panel. • 1. […] Incubate for 3 hrs at 37° C., 5% CO2 • 4. Add 1 μl nigericin (Sigma #N7143) ([…]) to all wells • 5. Incubate for 1 hr at 37° C., 5% CO2 • 6. At the end of the incubation period, spin plates at 300×g for 5 mins to pellet cells and remove 20 μl of supernatant and add to 96-well v-bottom plates for IL-1β analysis (note: these plates containing the supernatants can be stored at −80° C. to be analysed at a later date) • 7. IL-1β was measured according to the manufacturer protocol (Perkin Elmer-AlphaLisa IL-1 Kit AL220F-5000) • 8. IC50 data is fitted to a non-linear regression equation (log inhibitor vs response-variable slope 4-parameters)
(Alpha assays give light when donor and acceptor beads are brought close together.)

The target of test [2] is T1, NLRP3. Description: THP-1 cells pyroptosis assay. The conditions noted are these: LPS 1 μg/ml, nigericin 5 μM, resazurin readout. More on the design: Seed THP-1 cells (25,000 cells/well) containing 1.0 μg/ml LPS; host or cells: THP-1 cells. In kind it is cell-based. Here is the method: The cells were routinely passaged and grown to confluency (˜10^6 cells/ml). On the day of the experiment, THP-1 cells were harvested and resuspended into RPMI medium (without FBS). The cells were then counted and viability (>90%) checked by Trypan blue (Sigma #T8154). […] To this diluted cell solution was added LPS (Sigma #L4524) to give a 1 μg/ml Final Assay Concentration (FAC). 40 μl of the final preparation was aliquoted into each well of a 96-well plate. The plate thus prepared was used for compound screening.
The following method step-by-step assay was followed for compound screening. • 1. […] Incubate for 3 hrs at 37° C., 5% CO2 • 4. Add 5 μl nigericin (Sigma #N7143) (FAC 5 μM) to all wells • 5. Incubate for 1 hr at 37° C., 5% CO2 • 6. At the end of the incubation period, spin plates at 300×g for 3 mins and remove supernatant • 7. Then add 50 μl of resazurin (Sigma #R7017) (FAC 100 μM resazurin in RPMI medium without FBS) and incubate plates for a further 1-2 hrs at 37° C. and 5% CO2 • 8. […] IC50 data is fitted to a non-linear regression equation (log inhibitor vs response-variable slope 4-parameters)
Background: Alamar Blue is a resazurin reagent that responds to reducing activity.

T1 sequence (Q96P20 whole entry): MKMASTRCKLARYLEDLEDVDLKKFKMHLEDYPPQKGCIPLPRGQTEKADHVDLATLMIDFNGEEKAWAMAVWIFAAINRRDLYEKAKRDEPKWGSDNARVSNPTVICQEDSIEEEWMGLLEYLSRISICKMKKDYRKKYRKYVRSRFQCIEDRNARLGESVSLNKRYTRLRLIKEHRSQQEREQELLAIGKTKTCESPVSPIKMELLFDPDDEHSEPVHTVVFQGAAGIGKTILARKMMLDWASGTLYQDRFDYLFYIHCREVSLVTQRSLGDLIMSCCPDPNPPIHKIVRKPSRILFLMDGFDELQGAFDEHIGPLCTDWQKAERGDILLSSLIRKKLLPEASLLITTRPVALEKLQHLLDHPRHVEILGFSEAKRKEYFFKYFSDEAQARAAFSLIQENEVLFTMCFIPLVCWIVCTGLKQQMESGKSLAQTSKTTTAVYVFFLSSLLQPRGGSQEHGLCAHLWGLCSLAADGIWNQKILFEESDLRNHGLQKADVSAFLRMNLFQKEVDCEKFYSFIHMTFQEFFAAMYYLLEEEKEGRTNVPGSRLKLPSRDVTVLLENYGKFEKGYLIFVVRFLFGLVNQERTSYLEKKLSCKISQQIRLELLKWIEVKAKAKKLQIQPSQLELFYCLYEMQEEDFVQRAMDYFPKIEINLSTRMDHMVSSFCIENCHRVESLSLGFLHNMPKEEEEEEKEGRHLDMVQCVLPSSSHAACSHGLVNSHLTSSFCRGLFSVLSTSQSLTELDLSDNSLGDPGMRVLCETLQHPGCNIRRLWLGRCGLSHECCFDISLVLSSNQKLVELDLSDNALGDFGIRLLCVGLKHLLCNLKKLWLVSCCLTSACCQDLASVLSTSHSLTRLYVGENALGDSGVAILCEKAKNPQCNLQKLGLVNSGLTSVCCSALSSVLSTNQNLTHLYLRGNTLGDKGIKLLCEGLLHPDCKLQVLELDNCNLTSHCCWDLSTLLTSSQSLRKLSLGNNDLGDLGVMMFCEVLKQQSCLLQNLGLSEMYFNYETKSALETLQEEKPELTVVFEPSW

As a reminder, the IC50 is the point on the concentration scale where inhibition reaches its midpoint. Take `CC(C)n1ccc(S(=O)(=O)NC(=O)Nc2c(-c3ccnc(OC4CCCOC4)c3)ccc3c2CCC3)n1` (centres unmarked) [Example 74]: the IC50 at NLRP3 [1] is 1000 to 2000 nM; against NLRP3 [2], not above 250 nM. For the molecule `O=C(Nc1c(-c2ccnc(OC3CC3)c2)ccc2c1CCO2)NS(=O)(=O)c1ccn(C2CCC2)n1` [Example 67], the values for the IC50 on NLRP3 [1] and against NLRP3 [2] were 500 to 1000 nM and not above 250 nM, respectively. On to `CC(C)n1ccc(S(=O)(=O)NC(=O)Nc2c(-c3ccnc(Oc4ccccc4)c3)ccc3c2CCC3)n1` [Example 77], for which the half-inhibitory concentration (IC50) on NLRP3 [1] was 5000 to 10000 nM; at NLRP3 [2] it was not above 250 nM.

Consider `CC(C)n1ccc(S(=O)(=O)NC(=O)Nc2c(-c3ccnc(OC4CCN(C)CC4)c3)ccc3c2CCC3)n1` [Example 68, i-Isopropyl-N-((5-(2-((1-methylpiperidin-4-yl)oxy)pyridin-4-yl)-2,3-dihydro-1H-inden-4-yl)carbamoyl)-1H-pyrazole-3-sulfonamide], for which the IC50 at NLRP3 [1] was 250 to 500 nM; against NLRP3 [2], not above 250 nM.

Consider `Cc1cc2c(c(NC(=O)NS(=N)(=O)c3ccccc3)c1-c1ccnc(OC3CCN(C)CC3)c1)CCC2` (centres unmarked) [Example 79, N-((6-Methyl-5-(2-((1-methylpiperidin-4-yl)oxy)pyridin-4-yl)-2,3-dihydro-1H-inden-4-yl)carbamoyl)benzenesulfonimidamide], for which the half-maximal inhibitory concentration (IC50) on NLRP3 [1] was 1000 to 2000 nM; at NLRP3 [2], not above 250 nM.

Consider `Cc1cc2c(c(NC(=O)NS(C)(=O)=O)c1-c1ccnc(O[C@H]3CC[C@H](N(C)C)CC3)c1)CCC2` [Example 46], for which the IC50 on NLRP3 [1] and against NLRP3 [2] was not above 250 nM each time. In turn, `CC(C)n1ccc(S(=O)(=O)NC(=O)Nc2c(-c3ccnc(OC4CCN(C)C4)c3)ccc3c2CCC3)n1` (centres unmarked) [Example 76] displayed an IC50 against NLRP3 [2] of 500 to 1000 nM. As to `CC(C)n1ccc(S(=O)(=O)NC(=O)Nc2c(-c3ccnc(OC4CCOCC4)c3)ccc3c2CCC3)n1` [Example 73], the figures for the 50% inhibitory concentration (IC50) at NLRP3 [1] and against NLRP3 [2] were 500 to 1000 nM and not above 250 nM, respectively.

In the case of `C=CCN1CCC(Oc2cc(-c3ccc4c(c3NC(=O)NS(=O)(=O)CC=C)CCC4)ccn2)CC1` [Example 59, N-((5-(2-((1-Allylpiperidin-4-yl)oxy)pyridin-4-yl)-2,3-dihydro-1H-inden-4-yl)carbamoyl)prop-2-ene-1-sulfonamide], the results for the 50% inhibitory concentration (IC50) at NLRP3 [1] and at NLRP3 [2] were 1000 to 2000 nM and not above 250 nM, respectively. `CS(=O)(=O)NC(=O)Nc1c(-c2ccnc(OC3CCN(C4CC4)CC3)c2)ccc2c1CCC2` [Example 22]: the half-maximal inhibitory concentration (IC50) was 2000 to 5000 nM on NLRP3 [1] and not above 250 nM against NLRP3 [2]. As for `CN1CCC(Oc2cc(-c3ccc4c(c3NC(=O)NS(C)(=O)=O)CCC4)ccn2)CC1` [Example 35], the IC50 at NLRP3 [1] and on NLRP3 [2] was not above 250 nM in each case. `CS(=O)(=O)NC(=O)Nc1c(-c2ccnc(OC3CCOCC3)c2)ccc2c1CCC2` [Example 33]: the IC50 on NLRP3 [1] was 1000 to 2000 nM; at NLRP3 [2], 250 to 500 nM. As to `Cc1c(-c2ccc3c(c2NC(=O)NS(C)(=O)=O)CCC3)ccnc1OC1CCN(C)CC1` [Example 15], the IC50 at NLRP3 [1] and at NLRP3 [2] was 250 to 500 nM in each case. In turn, `COc1cc(-c2cc(F)cc(C(C)C)c2NC(=O)NS(=O)(=O)c2ccn(C(C)C)n2)cc(C)n1` [comp ex 2, reference compound] gave a half-maximal inhibitory concentration (IC50) against NLRP3 [2] of 2000 to 5000 nM.

As for `CN1CCC(Oc2cc(-c3cc(F)cc(C4CCCCC4)c3NC(=O)NS(C)(=O)=O)ccn2)CC1` [Example 39], the 50% inhibitory concentration (IC50) is 1000 to 2000 nM on NLRP3 [1] and not above 250 nM on NLRP3 [2]. The matching figures for `CO[C@H]1CC[C@H](Oc2cc(-c3c(C)cc4c(c3NC(=O)NS(C)(=O)=O)CCC4)ccn2)CC1` [Example 54]: 500 to 1000 nM and not above 250 nM. Turning to `CN1CCC(Oc2cc(-c3cc(F)cc(-c4ccccc4)c3NC(=O)NS(C)(=O)=O)ccn2)CC1` [Example 42], the IC50 at NLRP3 [1] and on NLRP3 [2] was 1000 to 2000 nM throughout. Take `CN1CCC(COc2cc(-c3ccc4c(c3NC(=O)NS(C)(=O)=O)CCC4)ccn2)CC1` [Example 27]: the IC50 at NLRP3 [1] was in the range of 500 to 1000 nM; on NLRP3 [2], 1000 to 2000 nM.

Turning to `CC(C)n1ccc(S(=O)(=O)NC(=O)Nc2c(-c3ccnc(OC4CCOC4)c3)ccc3c2CCC3)n1` (centres unmarked) [Example 70], the results for the 50% inhibitory concentration (IC50) on NLRP3 [1] and on NLRP3 [2] were 500 to 1000 nM and not above 250 nM, respectively. For `Cc1cc2c(c(NC(=O)NS(C)(=N)=O)c1-c1ccnc(OC3CCN(C)CC3)c1)CCC2` (centres unmarked) [Example 80, N-((6-Methyl-5-(2-((1-methylpiperidin-4-yl)oxy)pyridin-4-yl)-2,3-dihydro-1H-inden-4-yl)carbamoyl)methanesulfonimidamide], in that order: 500 to 1000 nM and not above 250 nM. With `CO[C@H]1CC[C@@H](Oc2cc(-c3ccc4c(c3NC(=O)NS(C)(=O)=O)CCC4)ccn2)CC1` [Example 1, N-((5-(2-(((1s,4s)-4-Methoxycyclohexyl)oxy)pyridin-4-yl)-2,3-dihydro-1H-inden-4-yl)carbamoyl)methanesulfonamide], the IC50 is 1000 to 2000 nM on NLRP3 [1] and not above 250 nM at NLRP3 [2]. Consider `CC(C)c1cc(F)cc(-c2ccnc(N(C)C)c2)c1NC(=O)NS(=O)(=O)c1ccn(C(C)C)n1` [comp ex 3, reference compound], for which, on NLRP3 [2], the IC50 was 2000 to 5000 nM.

On to `CN(C)CC(C)(C)n1ccc(S(=O)(=O)NC(=O)Nc2c(-c3ccnc(OC4CC4)c3)ccc3c2CCO3)n1` [Example 64, N-((5-(2-Cyclopropoxypyridin-4-yl)-2,3-dihydrobenzofuran-4-yl)carbamoyl)-1-(1-(dimethylamino)-2-methylpropan-2-yl)-1H-pyrazole-3-sulfonamide], for which the half-inhibitory concentration (IC50) on NLRP3 [1] is 250 to 500 nM; on NLRP3 [2], not above 250 nM. For `CC(C)(CN1CCC1)n1ccc(S(=O)(=O)NC(=O)Nc2c(-c3ccnc(OC4CC4)c3)ccc3c2CCC3)n1` [Example 65], in that order: 250 to 500 nM and not above 250 nM. Consider `CC1CC(Oc2cc(-c3ccc4c(c3NC(=O)NS(C)(=O)=O)CCC4)ccn2)CCO1` (centres unmarked) [Example 8], for which the IC50 on NLRP3 [1] was in the range of 1000 to 2000 nM; at NLRP3 [2], 250 to 500 nM. For the molecule `CC(C)n1ccc(S(=O)(=O)NC(=O)Nc2c(-c3ccnc(OC4CCC4)c3)ccc3c2CCC3)n1` [Example 75], the IC50 at NLRP3 [1] was 1000 to 2000 nM; against NLRP3 [2], not above 250 nM. For `Cc1cc2c(c(NC(=O)NS(C)(=O)=O)c1-c1ccnc(OC3CCOC3)c1)CCC2` (centres unmarked) [Example 53], in that order: 250 to 500 nM and not above 250 nM. For `CS(=O)(=O)NC(=O)Nc1c(-c2ccnc(O[C@H]3CC[C@@](C)(O)CC3)c2)ccc2c1CCC2` [Example 4], the IC50 on NLRP3 [1] is 250 to 500 nM; against NLRP3 [2], not above 250 nM.

In the case of `O=C(Nc1c(-c2ccnc(OC3CC3)c2)ccc2c1CCC2)NS(=O)(=O)c1ccn(C2CC2)n1` [Example 72], the IC50 was 1000 to 2000 nM at NLRP3 [1] and not above 250 nM on NLRP3 [2]. Turning to `CN(C)CC(C)(C)n1ccc(S(=O)(=O)NC(=O)Nc2c(-c3ccnc(OC4CC4)c3)ccc3c2CCC3)n1` [Example 66], the half-maximal inhibitory concentration (IC50) was 250 to 500 nM on NLRP3 [1] and not above 250 nM against NLRP3 [2]. Consider `CN1CCC(Oc2cc(-c3cc(F)cc(C4CCCC4)c3NC(=O)NS(C)(=O)=O)ccn2)CC1` [Example 41], for which the 50% inhibitory concentration (IC50) on NLRP3 [1] is 1000 to 2000 nM; on NLRP3 [2], not above 250 nM. Regarding `O=C(Nc1c(-c2ccnc(OC3CC3)c2)ccc2c1CCO2)NS(=O)(=O)c1ccn(C2CC2)n1` [Example 71], the IC50 at NLRP3 [1] is 500 to 1000 nM; at NLRP3 [2] it was not above 250 nM.

Turning to `CS(=O)(=O)NC(=O)Nc1c(-c2ccnc(OC3CCN(Cc4ccccc4)CC3)c2)ccc2c1CCC2` [Example 19], the half-inhibitory concentration (IC50) is 1000 to 2000 nM on NLRP3 [1] and not above 250 nM on NLRP3 [2].

Consider `CO[C@H]1CC[C@@H](Oc2cc(-c3c(C)cc4c(c3NC(=O)NS(C)(=O)=O)CCC4)ccn2)CC1` [Example 55], for which the IC50 at NLRP3 [1] is 500 to 1000 nM; on NLRP3 [2] it was not above 250 nM.

As to `Cc1cc2c(c(NC(=O)NS(C)(=O)=O)c1-c1ccnc(OCC3CCCN(C)C3)c1)CCC2` (centres unmarked) [Example 47], the half-inhibitory concentration (IC50) on NLRP3 [1] and at NLRP3 [2] was not above 250 nM each time. As for `CN(C)C1CCC(Oc2cc(-c3ccc4c(c3NC(=O)NS(C)(=O)=O)CCC4)ccn2)CC1` (centres unmarked) [Example 29], the IC50 on NLRP3 [1] and on NLRP3 [2] was not above 250 nM each time. Take `CN1CCC(Oc2cc(-c3ccc4c(c3NC(=O)N=S(N)(=O)c3ccccc3)CCC4)ccn2)CC1` (centres unmarked) [Example 78, N′-((5-(2-((1-Methylpiperidin-4-yl)oxy)pyridin-4-yl)-2,3-dihydro-1H-inden-4-yl)carbamoyl)benzenesulfonimidamide]: the IC50 on NLRP3 [1] was 2000 to 5000 nM; against NLRP3 [2], not above 250 nM.
